Reference: publication PMC9444293 (Investigative Radiology, 2022)
Like-named read-outs stand apart in the source and are kept apart here. Marks after values point to notes of the source that are not given here.

Tests used:
Partition coefficient = assay type: physicochemical; conditions: pH 7.4, room temperature
[1] = assay type: physicochemical; conditions: after 3 days
[2] = market formulation; ref Port et al, 24; cited from earlier work
[3] = assay type: physicochemical; conditions: 37°C, pH 7.4, 21 days, LLOQ 0.1 nmol Gd/g
[4] = Number of inner sphere water molecules; assay type: physicochemical; conditions: per Gd
[5] = IV 0.1 mmol Gd/kg bw
[6] = ref Szomolanyi et al, 23; cited from earlier work
[7] = cited from earlier work
[8] = rat
[9] = formulation; ref Port et al, 24; cited from earlier work
[10] = ref Port et al, 24; cited from earlier work
[11] = pH 7.4; cited from earlier work
[12] = 7 days after single IV 0.1 mmol Gd/kg bw
[13] = 7 days after single IV 0.1 mmol Gd/kg bw, LLOQ 0.05

O=C([O-])CN1CCN(CC(=O)[O-])CCN([C@H](CO)[C@H](O)CO)CCN(CC(=O)[O-])CC1.[Gd+3] (racemic) [Gadobutrol, gadobutrol, reference compound]
Log P (1-Butanol/Buffer) (Partition coefficient): −2.22 | Decrease of the T1 relaxation rates (R1) in zinc transmetallation assay [1]: no change | Osmolality at 37°C [2]: 1603∥ mosmol/kg H2O | Gd release after 21 days in human serum (below LLOQ) [3]: < 0.1 nmol Gd/g | No. Inner Sphere Water Molecules (q) [4]: q = 1 | AUC^∞ ([5]; rat plasma): 234 ± 10 (4.3%) μmol·h/L | γ-AUC ([5]; rat plasma): 1.1 % of AUC^∞ | γ-AUC ([5]; rat plasma, listed as gadobutrol): 1 % of AUC^∞ | Clplasma ([5]; rat): 0.43 ± 0.02 (4.3%) L/h/kg | Vss ([5]; rat): 0.29 ± 0.03 (9.1%) L/kg | β t1/2 ([5]; rat, 3-compartment model): 22 ± 0.69 (3.2%) min | γ t1/2 ([5]; rat, 3-compartment model): 13 ± 2.0 (16%) h | α t1/2 ([5]; rat, 3-compartment model, mean estimate ± SD (CV%)): 2.5 ± 1.1 (42%) min | r1-Relaxivity in Human Plasma at 37°C, 3.0 T [6]: 5.0 ± 0.6§ mM^−1 s^−1 | r1-Relaxivity in Human Plasma at 37°C, 1.5 T ([7]; ref Szomolanyi et al, 23, listed as gadobutrol): 4.8 mM⁻¹ s⁻¹ | r1-Relaxivity in Human Plasma at 37°C, 1.5 T ([7]; ref Szomolanyi et al, 23): 4.8 ± 0.1§ mM^−1 s^−1 | Gadolinium concentration, Bone marrow [8, 12]: 0.628 ± 0.420 nmol Gd/g wet tissue | Gadolinium concentration, Carcass [8, 12]: 0.590 ± 0.162 nmol Gd/g wet tissue | Gadolinium concentration, Heart [8, 12]: 0.127 ± 0.004 nmol Gd/g wet tissue | Gadolinium concentration, Intestine [8, 12]: 0.453 ± 0.233 nmol Gd/g wet tissue | Gadolinium concentration, Kidney [8, 12]: 19.6 ± 1.47 nmol Gd/g wet tissue | Gadolinium concentration, Liver [8, 12]: 0.312 ± 0.054 nmol Gd/g wet tissue | Gadolinium concentration, Lung [8, 12]: 0.218 ± 0.046 nmol Gd/g wet tissue | Gadolinium concentration, Mesenterial lymph nodes [8, 12]: 0.631 ± 0.113 nmol Gd/g wet tissue | Gadolinium concentration, Muscle [8, 12]: 0.074 ± 0.013 nmol Gd/g wet tissue | Gadolinium concentration, Skin [8, 12]: 0.202 ± 0.057 nmol Gd/g wet tissue | Gadolinium concentration, Spleen [8, 12]: 0.382 ± 0.101 nmol Gd/g wet tissue | Gadolinium concentration, Stomach [8, 12]: 0.155 ± 0.010 nmol Gd/g wet tissue | Gadolinium concentration, Blood [8, 13]: <0.05* nmol Gd/g wet tissue | Gadolinium concentration, Brain [8, 13]: <0.05* nmol Gd/g wet tissue | Gadolinium concentration, Bone ([8]; femur, 7 days after single IV 0.1 mmol Gd/kg bw): 1.013 ± 0.767 nmol Gd/g wet tissue | Amount of Gd recovered in Feces, 0–5 d ([8]; in vivo, iv): 1.44% ± 1.2% | Amount of Gd recovered in Urine, 0–1 d ([8]; in vivo, iv): 99.2% ± 1.5% | Amount of Gd recovered in Urine, 0–5 d ([8]; in vivo, iv): 100% ± 1.6% | Total recovery of Gd, 0–7 d ([8]; in vivo, iv): 102% ± 4.1% | Viscosity at 37°C [9]: 5.0∥ mPa·s

CNC[C@H](O)[C@@H](O)[C@H](O)[C@H](O)CO.O=C([O-])CN1CCN(CC(=O)[O-])CCN(CC(=O)O)CCN(CC(=O)[O-])CC1.[Gd+3] [Gadoterate meglumine, gadoterate meglumine]
Decrease of the T1 relaxation rates (R1) in zinc transmetallation assay [1]: no change | Log P (1-Butanol/Buffer) [10]: −2.87∥ | Osmolality at 37°C [2]: 1350∥ mosmol/kg H2O | No. Inner Sphere Water Molecules (q) [4]: q = 1 | r1-Relaxivity in Human Plasma at 37°C, 3.0 T [6]: 3.0 ± 0.1§ mM^−1 s^−1 | r1-Relaxivity in Human Plasma at 37°C, 1.5 T ([7]; ref Szomolanyi et al, 23, listed as gadoterate meglumine): 3.3 mM⁻¹ s⁻¹ | r1-Relaxivity in Human Plasma at 37°C, 1.5 T ([7]; ref Szomolanyi et al, 23): 3.3 ± 0.1§ mM^−1 s^−1 | Viscosity at 37°C [9]: 2.0∥ mPa·s

CNC[C@H](O)[C@@H](O)[C@H](O)[C@H](O)CO.CNC[C@H](O)[C@@H](O)[C@H](O)[C@H](O)CO.O=C([O-])CN(CCN(CC(=O)[O-])CC(=O)O)CCN(CC(=O)[O-])CC(=O)O.[Gd+3] [Gadopentetate dimeglumine, gadopentetate dimeglumine]
Decrease of the T1 relaxation rates (R1) in zinc transmetallation assay [1]: 66%

Gd-PCTA
log Kcond [11]: 15.5

CC(O)CN1CCN(CC(=O)[O-])CCN(CC(=O)[O-])CCN(CC(=O)[O-])CC1.[Gd+3] (centres unmarked) [Gadoteridol]
Log P (1-Butanol/Buffer) [10]: −1.98∥ | Osmolality at 37°C [2]: 630∥ mosmol/kg H2O | No. Inner Sphere Water Molecules (q) [4]: q = 1 | r1-Relaxivity in Human Plasma at 37°C, 3.0 T [6]: 3.3 ± 0.1§ mM^−1 s^−1 | r1-Relaxivity in Human Plasma at 37°C, 1.5 T ([7]; ref Szomolanyi et al, 23): 3.8 ± 0.1§ mM^−1 s^−1 | Viscosity at 37°C [9]: 1.3∥ mPa·s

Gadopiclenol
log Kcond [11]: 15.5
